Reference: US12371456B2, “Proteins for the treatment of epithelial barrier function disorders” (Genevive, Inc., priority 2017, dated 2025)

Legend:
[1] = test system: HCT8 enterocytes and HT29-MTX goblet cells (epithelial monolayer) co-cultured with U937 monocytes; test: Co-culture trans-epithelial electrical resistance (TEER) assay, barrier disruption by heat killed E. coli; assay type: cell-based, human; settings: staurosporine 100 nM, negative control
Protocol: Assays were performed as described below in trans-well plates where co-cultures of multiple cell types were performed utilizing a permeable membrane to separate cells. In the apical (top) chamber, human colonic epithelial cells, consisting of a mixture of enterocytes and goblet cells, were cultured until cells obtained tight junction formation and barrier function capacity as assessed by measurement of trans-epithelial electrical resistance (TEER). In the basolateral chamber, monocytes were cultured separately. Epithelial cells were primed with inflammatory cytokines.
Cell culture. The HCT8 human enterocyte cell line (ATCC Cat. No. CCL-244) was maintained in RPMI-1640 medium supplemented with 10% fetal bovine serum, 100 IU/ml penicillin, 100 µg/ml streptomycin, 10 µg/ml gentamicin and 0.25 µg/ml amphotericin (cRPMI). HT29-MTX human goblet cells (Sigma-Aldrich (St. Louis, MO; Cat. No. 12040401) were maintained in DMEM medium with 10% fetal bovine serum, 100 IU/ml penicillin, 100 µg/ml streptomycin, 10 µg/ml gentamicin and 0.25 µg/ml amphotericin (cDMEM). Epithelial cells were passaged by trypsinization and were used between 5 and 15 passages following thawing from liquid nitrogen stocks. U937 monocytes (ATCC Cat. No. 700928) were maintained in cRPMI medium as a suspension culture, and split by dilution as needed to maintain cells between 5×10^5 and 2×10^6 cells/ml. U937 cells were used up to passage 18 following thawing from liquid nitrogen stocks.
Epithelial cell culture. A mixture of HCT8 enterocytes and HT29-MTX goblet cells were plated at a 9:1 ratio, respectively, in the apical chamber of the transwell plate as described previously (Berget et al., 2017, Int J Mol Sci, 18:1573; Beduneau et al., 2014, Eur J Pharm Biopharm, 87:290-298). […] Epithelial cells were trypsinized from culture flasks and viable cells determined by trypan blue counting. […]
Co-culture assay. […] Trans-epithelial electrical resistance (TEER) readings were measured after the IFN-γ treatment and were used as the pre-treatment TEER values. […]

[2] = test system: HCT8 enterocyte and HT29-MTX goblet cell lines; test: Oris Cell Migration assay (epithelial cell wound healing); assay type: cell-based, human; settings: 48 hours; SG-14 1 μg/ml, EGF 30 ng/ml, staurosporine 100 nM; FIG. 5
From the text: The 96 well Oris Cell Migration assay containing plugs preventing cell attachment in the center of each well was used according to the manufacturer's instructions (Platypus Technologies, Madison, WI). The migration assay plates were warmed to room temperature prior to use and plugs were removed from 100% confluence wells prior to cell addition. The HCT8 enterocyte and HT29-MTX goblet cell lines were used at a 9:1 ratio with a total of 5×10^4 total cells added per well (4.5×10^4 HCT8 cells and 0.5×10^4 HT29-MTX cells). Cells were incubated at 37° C.+5% CO2 for 24 hours. Plugs were then removed from all control and sample wells. Control wells included cells treated with the diluent vehicle as the blank, 30 ng/ml epidermal growth factor (EGF) as the positive control, and 100 nM staurosporine as the negative control, all diluted in cRPMI. Sample wells contained SG-14 protein at a concentration of 1 μg/ml diluted in cRPMI. 100% and 0% wells were cultured in cRPMI. […] The green fluorescent viability dye […] was added to all wells at a concentration of […] in PBS containing 0.9 mM CaCl2) and 0.5 mM MgCl2, incubated for 30 min at 37° C.+5% CO2, the dye was removed and cells were washed in PBS containing 0.9 mM CaCl2) and 0.5 mM MgCl2 and fluorescence was measured. […] Samples were normalized between 100% and 0% samples and values expressed as a percent growth.

[3] = test system: DSS model of inflammatory bowel disease; test: DSS model: colon length and colon weight to length ratio; assay type: in vivo, C57BL/6 mice; settings: DSS treated mice
Protocol: Eight-week old C57BL/6 mice were housed 5 animals were cage and given food and water ad libitum for 7 days. Following the 7-day acclimation period, treatments were initiated concurrently with addition of 2.5% DSS to the drinking water. […] The mice were treated with 2.5% dextran sodium sulfate (DSS) in their drinking water for 6 days. Treatments were continued with SG-14 or […]-GLP2 twice a day (b.i.d.) in the morning and evening (every 8 and 16 hr) with i.p. injections at 50 nmoles/kg. Fresh 2.5% DSS drinking water was prepared every 2 days. Colon length was measured in mice included in the DSS model described in Example 7. […] The graphs in FIG. 10 and FIG. 11 represent data pooled from the single experiment (n=10).

[4] = design: species or system mice; settings: mouse, in vivo, ip

## CN[C@@H]1C[C@H]2O[C@@](C)([C@@H]1OC)n1c3ccccc3c3c4c(c5c6ccccc6n2c5c31)C(=O)NC4 [staurosporine, reference compound]
[1]
  Effect on TEER (control compound): drastic decrease in TEER
[2]
  Wound healing (percent growth): suppressing cell proliferation

## EGF: epidermal growth factor, positive control in wound healing assay
[2]
  Wound healing (percent growth): increasing proliferation

## Gly2-GLP2: a stable analog of glucagon-like peptide 2 (GLP2); positive control in DSS model (HGDGSFSDEMNTILDNLAARDFINWLIQTKITD; Glucagon-like peptide 2; UniProt P01275 146-178, looked up, variant A2G) [reference compound]
[3]; FIG. 10
  Colon length: significant improvement in colon length
[3]; FIG. 11
  Ratio between colon weight and length: significant reduction

## fluorescently labeled bovine serum albumin: fluorescently labeled bovine serum albumin used for tracking after i.p. injection
[4]
  Time at which protein reached the colon after i.p. delivery: 6 h
